{"source": "ChEMBL document CHEMBL4804286", "about": "“3-amino-4-(4-(4 (dimethylcarbamoyl) phenyl)-1,4-diazepan-1-yl) thieno [2,3-b] pyridine-2-carboxamide for use in cancer therapy and formulations comprising the same” (2020)", "key": {"[1]": {"molecular_target": "Serine/threonine-protein kinase 26 (Homo sapiens) (UniProt Q9P289)", "test": "Inhibition of human MST4 assessed as percent of control at 2000 nM by KINOMEscan assay relative to control", "set-up": "scale not given: the % may be the effect or the level left"}, "[2]": {"molecular_target": "Ephrin type-A receptor 5 (Homo sapiens) (UniProt P54756)", "sequence (P54756 whole entry)": "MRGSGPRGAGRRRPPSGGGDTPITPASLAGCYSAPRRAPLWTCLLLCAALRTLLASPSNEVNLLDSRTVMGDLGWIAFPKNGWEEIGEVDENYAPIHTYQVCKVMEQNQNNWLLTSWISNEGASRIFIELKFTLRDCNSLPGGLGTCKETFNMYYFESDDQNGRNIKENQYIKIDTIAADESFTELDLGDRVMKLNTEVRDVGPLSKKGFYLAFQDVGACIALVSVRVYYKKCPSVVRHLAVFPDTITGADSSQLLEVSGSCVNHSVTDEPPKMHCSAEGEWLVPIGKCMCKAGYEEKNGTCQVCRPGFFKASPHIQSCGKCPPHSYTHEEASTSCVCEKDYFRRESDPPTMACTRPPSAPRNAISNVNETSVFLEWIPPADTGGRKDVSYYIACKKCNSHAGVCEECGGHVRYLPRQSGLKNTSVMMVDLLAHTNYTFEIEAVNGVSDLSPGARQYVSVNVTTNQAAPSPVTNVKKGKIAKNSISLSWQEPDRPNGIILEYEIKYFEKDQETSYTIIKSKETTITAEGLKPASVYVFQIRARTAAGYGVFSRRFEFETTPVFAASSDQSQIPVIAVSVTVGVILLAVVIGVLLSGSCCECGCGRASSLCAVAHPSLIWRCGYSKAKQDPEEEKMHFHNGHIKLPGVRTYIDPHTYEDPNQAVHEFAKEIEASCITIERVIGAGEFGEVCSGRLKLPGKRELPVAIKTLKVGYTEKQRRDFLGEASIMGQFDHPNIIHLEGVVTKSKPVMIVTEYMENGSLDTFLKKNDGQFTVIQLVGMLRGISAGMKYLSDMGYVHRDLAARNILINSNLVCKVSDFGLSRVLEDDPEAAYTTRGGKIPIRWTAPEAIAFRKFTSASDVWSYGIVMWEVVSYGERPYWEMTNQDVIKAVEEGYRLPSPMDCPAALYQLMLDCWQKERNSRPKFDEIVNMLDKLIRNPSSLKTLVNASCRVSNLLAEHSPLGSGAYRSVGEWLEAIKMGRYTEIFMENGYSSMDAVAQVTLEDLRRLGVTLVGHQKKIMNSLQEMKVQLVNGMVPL", "test": "Inhibition of human EPHA5 assessed as percent of control at 2000 nM by KINOMEscan assay relative to control", "set-up": "scale not given: the % may be the effect or the level left"}, "[3]": {"molecular_target": "Dual specificity protein kinase CLK1 (Homo sapiens) (UniProt P49759)", "test": "Inhibition of human CLK1 assessed as percent of control at 2000 nM by KINOMEscan assay relative to control", "set-up": "scale not given: the % may be the effect or the level left"}, "[4]": {"molecular_target": "Cyclin-dependent kinase 11A (Homo sapiens) (UniProt Q9UQ88)", "test": "Inhibition of human CDC2L2 assessed as percent of control at 2000 nM by KINOMEscan assay relative to control", "set-up": "scale not given: the % may be the effect or the level left"}, "[5]": {"tested_on": "Mast/stem cell growth factor receptor Kit (Homo sapiens), P10721 [V559D]", "test": "Inhibition of human KIT V559D mutant assessed as percent of control at 2000 nM by KINOMEscan assay relative to control", "set-up": "scale not given: the % may be the effect or the level left"}, "[6]": {"tested_on": "eIF-2-alpha kinase GCN2 (Homo sapiens), Q9P2K8 [S808G]", "test": "Inhibition of human GCN2 S808G mutant kinase domain 2 assessed as percent of control at 2000 nM by KINOMEscan assay relative to control", "set-up": "scale not given: the % may be the effect or the level left"}, "[7]": {"molecular_target": "Casein kinase I isoform alpha (Homo sapiens) (UniProt P48729)", "details": "INHIBITOR, dose 2000.0 nM", "description": "Inhibition of human CSNK1A1 at 2000 nM by KINOMEscan assay"}, "[8]": {"molecular_target": "Ephrin type-A receptor 7 (Homo sapiens) (UniProt Q15375)", "sequence (Q15375 28-998 limits assumed)": "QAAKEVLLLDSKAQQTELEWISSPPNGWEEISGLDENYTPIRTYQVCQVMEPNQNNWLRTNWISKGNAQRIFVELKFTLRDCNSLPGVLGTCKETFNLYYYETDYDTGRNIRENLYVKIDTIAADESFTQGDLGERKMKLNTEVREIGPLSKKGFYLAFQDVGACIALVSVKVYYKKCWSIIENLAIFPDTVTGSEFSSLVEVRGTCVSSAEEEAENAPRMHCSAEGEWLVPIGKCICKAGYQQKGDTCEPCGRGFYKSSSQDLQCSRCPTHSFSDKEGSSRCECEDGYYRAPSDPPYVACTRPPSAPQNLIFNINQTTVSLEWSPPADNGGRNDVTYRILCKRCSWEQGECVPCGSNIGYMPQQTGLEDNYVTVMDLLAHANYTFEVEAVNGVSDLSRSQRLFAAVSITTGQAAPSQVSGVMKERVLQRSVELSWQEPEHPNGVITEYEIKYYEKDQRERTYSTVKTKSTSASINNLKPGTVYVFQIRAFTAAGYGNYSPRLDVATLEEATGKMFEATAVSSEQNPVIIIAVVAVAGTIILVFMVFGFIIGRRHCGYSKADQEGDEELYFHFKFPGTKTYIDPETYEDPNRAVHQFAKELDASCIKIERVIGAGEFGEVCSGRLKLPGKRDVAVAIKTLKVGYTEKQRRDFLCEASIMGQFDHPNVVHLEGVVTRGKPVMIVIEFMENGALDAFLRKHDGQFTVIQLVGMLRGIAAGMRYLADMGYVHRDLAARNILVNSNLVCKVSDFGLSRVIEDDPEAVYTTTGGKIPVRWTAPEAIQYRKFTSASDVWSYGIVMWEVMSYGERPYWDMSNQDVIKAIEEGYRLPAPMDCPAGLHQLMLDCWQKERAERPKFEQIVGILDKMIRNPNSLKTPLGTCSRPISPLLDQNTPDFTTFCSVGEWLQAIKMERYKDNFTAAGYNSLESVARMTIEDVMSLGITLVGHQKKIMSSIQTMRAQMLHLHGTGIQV", "test": "Inhibition of human EPHA7 assessed as percent of control at 2000 nM by KINOMEscan assay relative to control", "set-up": "scale not given: the % may be the effect or the level left"}, "[9]": {"molecular_target": "Microtubule-associated serine/threonine-protein kinase 1 (Homo sapiens) (UniProt Q9Y2H9)", "sequence (Q9Y2H9 whole entry, looked up)": "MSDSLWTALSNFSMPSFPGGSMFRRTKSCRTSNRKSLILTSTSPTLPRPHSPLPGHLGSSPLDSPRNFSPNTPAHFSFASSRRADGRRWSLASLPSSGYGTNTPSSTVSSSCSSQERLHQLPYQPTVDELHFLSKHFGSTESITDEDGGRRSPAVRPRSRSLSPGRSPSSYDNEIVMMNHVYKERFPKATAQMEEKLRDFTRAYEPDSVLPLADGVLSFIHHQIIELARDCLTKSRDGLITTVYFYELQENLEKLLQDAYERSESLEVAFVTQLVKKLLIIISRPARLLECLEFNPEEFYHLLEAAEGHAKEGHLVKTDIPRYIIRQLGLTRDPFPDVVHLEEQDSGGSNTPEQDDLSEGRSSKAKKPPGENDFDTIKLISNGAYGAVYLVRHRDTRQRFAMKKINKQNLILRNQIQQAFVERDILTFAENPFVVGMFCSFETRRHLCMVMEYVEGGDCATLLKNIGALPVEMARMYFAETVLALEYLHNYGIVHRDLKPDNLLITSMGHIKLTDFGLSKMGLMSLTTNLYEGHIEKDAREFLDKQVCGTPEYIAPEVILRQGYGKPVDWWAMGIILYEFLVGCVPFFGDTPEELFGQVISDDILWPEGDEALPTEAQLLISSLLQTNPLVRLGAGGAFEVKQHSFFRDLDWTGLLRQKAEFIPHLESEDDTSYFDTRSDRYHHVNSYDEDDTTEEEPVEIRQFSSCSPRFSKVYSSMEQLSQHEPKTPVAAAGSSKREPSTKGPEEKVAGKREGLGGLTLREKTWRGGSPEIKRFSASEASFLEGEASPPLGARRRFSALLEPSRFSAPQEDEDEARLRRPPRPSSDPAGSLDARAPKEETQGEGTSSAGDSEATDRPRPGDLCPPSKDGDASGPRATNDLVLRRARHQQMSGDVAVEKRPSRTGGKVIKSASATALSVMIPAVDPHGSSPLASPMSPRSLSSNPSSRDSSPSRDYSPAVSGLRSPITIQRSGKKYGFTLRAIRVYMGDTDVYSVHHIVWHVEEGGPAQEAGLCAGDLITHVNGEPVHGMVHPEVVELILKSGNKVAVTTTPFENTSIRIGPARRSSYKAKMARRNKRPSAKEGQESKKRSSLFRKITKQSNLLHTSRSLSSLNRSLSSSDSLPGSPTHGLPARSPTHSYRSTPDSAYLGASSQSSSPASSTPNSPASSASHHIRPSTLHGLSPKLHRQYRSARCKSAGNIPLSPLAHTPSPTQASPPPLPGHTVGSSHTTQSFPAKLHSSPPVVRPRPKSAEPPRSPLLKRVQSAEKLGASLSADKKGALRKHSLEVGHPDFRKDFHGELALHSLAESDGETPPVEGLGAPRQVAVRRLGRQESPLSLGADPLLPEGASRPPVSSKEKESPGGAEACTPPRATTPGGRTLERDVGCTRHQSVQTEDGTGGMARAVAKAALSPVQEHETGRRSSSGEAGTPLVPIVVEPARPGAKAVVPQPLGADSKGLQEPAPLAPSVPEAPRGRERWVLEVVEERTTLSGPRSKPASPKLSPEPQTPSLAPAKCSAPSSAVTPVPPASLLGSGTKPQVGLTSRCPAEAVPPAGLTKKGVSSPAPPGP", "test": "Inhibition of human MAST1 assessed as percent of control at 2000 nM by KINOMEscan assay relative to control", "set-up": "scale not given: the % may be the effect or the level left"}, "CWR22R": {"tested_on": "CWR22R", "test": "Antitumor activity against human 22Rv1 cells expressing AR-V7 xenografted in male nude mouse assessed as suppression of tumor growth at 50 mg/kg, administered twice a day for 40 days", "assay_type": "functional, organism-based"}, "[10]": {"molecular_target": "NUAK family SNF1-like kinase 1 (Homo sapiens) (UniProt O60285)", "test": "Inhibition of human ARK5 assessed as percent of control at 2000 nM by KINOMEscan assay relative to control", "set-up": "scale not given: the % may be the effect or the level left"}, "[11]": {"molecular_target": "Serine/threonine-protein kinase 32B (Homo sapiens) (UniProt Q9NY57)", "sequence (Q9NY57 whole entry)": "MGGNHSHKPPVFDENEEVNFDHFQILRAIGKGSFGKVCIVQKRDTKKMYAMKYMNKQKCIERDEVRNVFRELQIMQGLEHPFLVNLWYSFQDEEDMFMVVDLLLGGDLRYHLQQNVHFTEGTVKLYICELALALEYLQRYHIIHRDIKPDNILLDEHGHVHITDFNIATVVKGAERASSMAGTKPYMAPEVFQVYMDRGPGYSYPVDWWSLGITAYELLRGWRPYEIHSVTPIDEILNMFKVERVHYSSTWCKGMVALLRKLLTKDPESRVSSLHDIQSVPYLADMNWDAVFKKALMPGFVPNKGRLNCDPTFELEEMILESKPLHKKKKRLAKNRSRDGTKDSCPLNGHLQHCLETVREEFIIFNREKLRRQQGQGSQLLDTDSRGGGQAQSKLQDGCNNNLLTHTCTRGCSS", "test": "Inhibition of human YANK2 assessed as percent of control at 2000 nM by KINOMEscan assay relative to control", "set-up": "scale not given: the % may be the effect or the level left"}, "[12]": {"molecular_target": "Insulin receptor (Homo sapiens) (UniProt P06213)", "test": "Inhibition of human INSR assessed as percent of control at 2000 nM by KINOMEscan assay relative to control", "set-up": "scale not given: the % may be the effect or the level left"}, "[13]": {"tested_on": "Proto-oncogene tyrosine-protein kinase receptor Ret (Homo sapiens), P07949 [V804M]", "test": "Inhibition of human RET V804M mutant assessed as percent of control at 2000 nM by KINOMEscan assay relative to control", "set-up": "scale not given: the % may be the effect or the level left"}, "[14]": {"molecular_target": "Serine/threonine-protein kinase Nek11 (Homo sapiens) (UniProt Q8NG66)", "test": "Inhibition of human NEK11 assessed as percent of control at 2000 nM by KINOMEscan assay relative to control", "set-up": "scale not given: the % may be the effect or the level left"}, "[15]": {"molecular_target": "Ribosomal protein S6 kinase alpha-5 (Homo sapiens) (UniProt O75582)", "test": "Inhibition of human C-terminal RPS6KA5 kinase domain 2 assessed as percent of control at 2000 nM by KINOMEscan assay relative to control", "set-up": "scale not given: the % may be the effect or the level left"}, "[16]": {"molecular_target": "Dual specificity testis-specific protein kinase 1 (Homo sapiens) (UniProt Q15569)", "test": "Inhibition of human TESK1 assessed as percent of control at 2000 nM by KINOMEscan assay relative to control", "set-up": "scale not given: the % may be the effect or the level left"}, "[17]": {"molecular_target": "Tyrosine-protein kinase Fer (Homo sapiens) (UniProt P16591)", "test": "Inhibition of human FER assessed as percent of control at 2000 nM by KINOMEscan assay relative to control", "set-up": "scale not given: the % may be the effect or the level left"}, "[18]": {"molecular_target": "Homeodomain-interacting protein kinase 1 (Homo sapiens) (UniProt Q86Z02)", "test": "Inhibition of human HIPK1 assessed as percent of control at 2000 nM by KINOMEscan assay relative to control", "set-up": "scale not given: the % may be the effect or the level left"}, "[19]": {"molecular_target": "Serine/threonine-protein kinase MARK2 (Homo sapiens) (UniProt Q7KZI7)", "test": "Inhibition of human MARK2 assessed as percent of control at 2000 nM by KINOMEscan assay relative to control", "set-up": "scale not given: the % may be the effect or the level left"}, "[20]": {"tested_on": "Epidermal growth factor receptor (Homo sapiens), P00533 [UNDEFINED MUTATION]", "test": "Inhibition of human EGFR L747-T751del/Sins double mutant assessed as percent of control at 2000 nM by KINOMEscan assay relative to control", "set-up": "scale not given: the % may be the effect or the level left"}, "[21]": {"molecular_target": "Mitogen-activated protein kinase kinase kinase 10 (Homo sapiens) (UniProt Q02779)", "test": "Inhibition of human MLK2 assessed as percent of control at 2000 nM by KINOMEscan assay relative to control", "set-up": "scale not given: the % may be the effect or the level left"}, "[22]": {"molecular_target": "RAC-alpha serine/threonine-protein kinase (Homo sapiens) (UniProt P31749)", "test": "Inhibition of human AKT1 assessed as percent of control at 2000 nM by KINOMEscan assay relative to control", "set-up": "scale not given: the % may be the effect or the level left"}, "[23]": {"molecular_target": "Cyclin-dependent kinase 15 (Homo sapiens) (UniProt Q96Q40)", "test": "Inhibition of human PFTAIRE2 assessed as percent of control at 2000 nM by KINOMEscan assay relative to control", "set-up": "scale not given: the % may be the effect or the level left"}, "[24]": {"molecular_target": "Cyclin-dependent kinase-like 1 (Homo sapiens) (UniProt Q00532)", "test": "Inhibition of human CDKL1 assessed as percent of control at 2000 nM by KINOMEscan assay relative to control", "set-up": "scale not given: the % may be the effect or the level left"}, "[25]": {"molecular_target": "Ephrin type-B receptor 1 (Homo sapiens) (UniProt P54762)", "sequence (P54762 whole entry)": "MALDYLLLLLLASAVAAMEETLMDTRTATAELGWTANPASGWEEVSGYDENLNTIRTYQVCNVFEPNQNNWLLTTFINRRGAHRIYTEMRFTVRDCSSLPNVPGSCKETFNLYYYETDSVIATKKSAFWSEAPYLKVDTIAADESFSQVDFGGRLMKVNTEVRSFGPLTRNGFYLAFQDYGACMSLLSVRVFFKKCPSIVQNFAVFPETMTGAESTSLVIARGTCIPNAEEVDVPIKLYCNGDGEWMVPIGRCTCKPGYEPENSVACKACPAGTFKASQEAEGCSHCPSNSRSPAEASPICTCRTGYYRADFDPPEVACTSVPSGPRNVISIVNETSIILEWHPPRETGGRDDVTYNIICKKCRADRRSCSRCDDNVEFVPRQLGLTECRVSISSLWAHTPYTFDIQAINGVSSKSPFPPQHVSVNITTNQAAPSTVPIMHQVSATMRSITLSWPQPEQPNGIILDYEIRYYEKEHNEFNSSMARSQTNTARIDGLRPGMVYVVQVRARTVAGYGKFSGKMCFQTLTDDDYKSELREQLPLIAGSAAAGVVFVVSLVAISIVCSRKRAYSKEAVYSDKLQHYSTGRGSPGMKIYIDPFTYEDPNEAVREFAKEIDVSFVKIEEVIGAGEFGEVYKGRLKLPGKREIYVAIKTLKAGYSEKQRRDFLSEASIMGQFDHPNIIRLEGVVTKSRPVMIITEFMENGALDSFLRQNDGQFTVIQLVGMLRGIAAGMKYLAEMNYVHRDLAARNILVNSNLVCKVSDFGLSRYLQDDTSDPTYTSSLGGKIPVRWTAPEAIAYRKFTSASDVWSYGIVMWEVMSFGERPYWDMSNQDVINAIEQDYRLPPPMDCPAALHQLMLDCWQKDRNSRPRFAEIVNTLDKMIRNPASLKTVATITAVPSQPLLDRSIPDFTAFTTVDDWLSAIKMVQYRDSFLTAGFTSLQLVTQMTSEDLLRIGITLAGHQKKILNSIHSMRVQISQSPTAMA", "test": "Inhibition of human EPHB1 assessed as percent of control at 2000 nM by KINOMEscan assay relative to control", "set-up": "scale not given: the % may be the effect or the level left"}, "[26]": {"molecular_target": "Phosphatidylinositol 3-kinase C2 domain-containing subunit gamma (Homo sapiens) (UniProt O75747)", "test": "Inhibition of human PIK3C2G assessed as percent of control at 2000 nM by KINOMEscan assay relative to control", "set-up": "scale not given: the % may be the effect or the level left"}, "[27]": {"molecular_target": "Mitogen-activated protein kinase kinase kinase 5 (Homo sapiens) (UniProt Q99683)", "test": "Inhibition of human ASK1 assessed as percent of control at 2000 nM by KINOMEscan assay relative to control", "set-up": "scale not given: the % may be the effect or the level left"}, "[28]": {"molecular_target": "Protein kinase C delta type (Homo sapiens) (UniProt Q05655)", "test": "Inhibition of human PRKCD assessed as percent of control at 2000 nM by KINOMEscan assay relative to control", "set-up": "scale not given: the % may be the effect or the level left"}, "[29]": {"molecular_target": "Receptor tyrosine-protein kinase erbB-2 (Homo sapiens) (UniProt P04626)", "test": "Inhibition of human ERBB2 assessed as percent of control at 2000 nM by KINOMEscan assay relative to control", "set-up": "scale not given: the % may be the effect or the level left"}, "[30]": {"tested_on": "Tyrosine-protein kinase ABL1 (Homo sapiens), P00519 [UNDEFINED MUTATION]", "test": "Inhibition of non-phosphorylated human ABL1 […] mutant assessed as percent of control at 2000 nM by KINOMEscan assay relative to control", "set-up": "scale not given: the % may be the effect or the level left"}}, "note": "Values joined by “and” are separate entries in the source; they are usually repeats but may differ in a detail not shown here. Identical values can stand only once. Active and inactive are the calls of the source. No cut-off for these calls is given here."}
{"smiles": "CN(C)C(=O)c1ccc(N2CCCN(c3ccnc4sc(C(N)=O)c(N)c34)CC2)cc1", "values": [{"measurement": "Activity", "setting": "[1]", "result": "95% and 89%"}, {"measurement": "Activity", "setting": "[2]", "result": "89% and 96%"}, {"measurement": "Activity", "setting": "[3]", "result": "88% and 68%"}, {"measurement": "Activity", "setting": "[4]", "result": 100, "unit": "%"}, {"measurement": "Activity", "setting": "[5]", "result": "98% and 91%"}, {"measurement": "Activity", "setting": "[6]", "result": "73% and 88%"}, {"measurement": "inhibition", "setting": "[7]", "result": "> 65", "unit": "%"}, {"measurement": "Activity", "setting": "[8]", "result": "92% and 81%"}, {"measurement": "Activity", "setting": "[9]", "result": 92, "unit": "%"}, {"measurement": "Activity", "setting": "CWR22R", "result": "Active"}, {"measurement": "Activity", "setting": "[10]", "result": "57% and 77%"}, {"measurement": "Activity", "setting": "[11]", "result": "89% and 84%"}, {"measurement": "Activity", "setting": "[12]", "result": "97% and 80%"}, {"measurement": "Activity", "setting": "[13]", "result": 100, "unit": "%"}, {"measurement": "Activity", "setting": "[14]", "result": "90% and 86%"}, {"measurement": "Activity", "setting": "[15]", "result": "95% and 100%"}, {"measurement": "Activity", "setting": "[16]", "result": "83% and 100%"}, {"measurement": "Activity", "setting": "[17]", "result": "99% and 100%"}, {"measurement": "Activity", "setting": "[18]", "result": "86% and 71%"}, {"measurement": "Activity", "setting": "[19]", "result": "100% and 96%"}, {"measurement": "Activity", "setting": "[20]", "result": "87% and 100%"}, {"measurement": "Activity", "setting": "[21]", "result": "100% and 95%"}, {"measurement": "Activity", "setting": "[22]", "result": 100, "unit": "%"}, {"measurement": "Activity", "setting": "[23]", "result": "100% and 80%"}, {"measurement": "Activity", "setting": "[24]", "result": "100% and 92%"}, {"measurement": "Activity", "setting": "[25]", "result": 88, "unit": "%"}, {"measurement": "Activity", "setting": "[26]", "result": "94% and 82%"}, {"measurement": "Activity", "setting": "[27]", "result": 100, "unit": "%"}, {"measurement": "Activity", "setting": "[28]", "result": "100% and 92%"}, {"measurement": "Activity", "setting": "[29]", "result": "100% and 89%"}, {"measurement": "Activity", "setting": "[30]", "result": "100% and 76%"}]}
